In patent publication US5817667A, “Compounds and methods for the treatment of cancer” (University of Georgia Research Foudation, priority 1994, dated 1998):

Legend:
[1] = test system: SN12C; experiment: NCI cancer screening, growth inhibition (SRB); assay type: cell-based; details: Renal Cancer, 48 hours exposure
[2] = test system: DU-145; experiment: NCI cancer screening, growth inhibition (SRB); assay type: cell-based; details: Prostate Cancer; 48 hours exposure
[3] = test system: MALME-3M; experiment: NCI cancer screening, growth inhibition (SRB); assay type: cell-based; details: Melanoma, 48 hours exposure
[4] = test system: Leukemia P388 cells; experiment: In vivo treatment of leukemia P388 cells implanted ip in BDF1 mice
[5] = Non-Small Cell Lung Cancer; 48 hours exposure
[6] = cells; details: 48 h, read-out: Log10 GI50 (converted)
[7] = test system: 785-4; experiment: NCI cancer screening, growth inhibition (SRB); assay type: cell-based; details: Renal Cancer, 48 hours exposure
[8] = test system: HS578T; experiment: NCI cancer screening, growth inhibition (SRB); assay type: cell-based
[9] = test system: MCF7; experiment: NCI cancer screening, growth inhibition (SRB); assay type: cell-based; details: Breast Cancer, 48 hours exposure
[10] = test system: prostate cancer cell lines; experiment: NCI cancer screening, relative sensitivity (FIG. 4); assay type: cell-based; details: FIG. 4, certain prostate cancer cell lines
From the text: (§1) Bars extending to the right represent sensitivity of the cell line to (-)-OddC in excess of the average sensitivity of all tested cell lines. […] Bars extending to the left correspondingly imply sensitivity less than the mean. These cell lines can be easily determined from Table 2, as the log10 concentration will be preceded by a ">".

[11] = test system: colon cell lines; experiment: as above; assay type: cell-based; details: FIG. 4, certain colon cell lines
From the text: as §1

[12] = test system: each type of cancer cell tested; experiment: as above; assay type: cell-based; details: FIG. 4, on the basis of GI50; at least one cell line of each type
From the text: as §1

[13] = test system: leukemia cell lines; experiment: as above; assay type: cell-based; details: FIG. 4, certain leukemia cell lines
From the text: as §1

[14] = NCI cancer screening, growth inhibition (SRB); assay type: cell-based; details: Leukemia; 48 hours exposure; read-out: Log10 GI50 (converted)
[15] = test system: BSOLT-4; experiment: NCI cancer screening, growth inhibition (SRB); assay type: cell-based; details: Leukemia; 48 hours exposure
[16] = test system: K2112; experiment: cells; details: 48 h, read-out: Log10 GI50 (converted)
[17] = test system: SP-295; experiment: NCI cancer screening, growth inhibition (SRB); assay type: cell-based; details: CNS Cancer, 48 hours exposure
[18] = test system: OVCAR-4; experiment: NCI cancer screening, growth inhibition (SRB); assay type: cell-based
[19] = test system: HCT-116; experiment: NCI cancer screening, growth inhibition (SRB); assay type: cell-based; details: Colon Cancer, 48 hours exposure
[20] = test system: Colon 38 tumor cells; experiment: In vivo treatment of Colon 38 tumor cells implanted sc in BDF1 mice; details: 25 mg/kg/dose twice daily for five days, FIG. 2
From the text: The graph plots tumor growth as a percentage of original tumor weight vs. days. Treatment of the mice occurred in days 1, 2, 3, 4 and 5.
Colon 38 tumor cells were implanted sc to BDF1 mice.

[21] = test system: SK-MEL-28; experiment: NCI cancer screening, growth inhibition (SRB); assay type: cell-based; details: Melanoma, 48 hours exposure
[22] = test system: NCI-H460; experiment: NCI cancer screening, growth inhibition (SRB); assay type: cell-based; details: Non-Small Cell Lung Cancer, 48 hours exposure
[23] = test system: SK-OV-3; experiment: NCI cancer screening, growth inhibition (SRB); assay type: cell-based; details: Homo sapiens, SK-OV-3, 48 h, read-out: Log10 GI50 (converted)
[24] = test system: HT29; experiment: NCI cancer screening, growth inhibition (SRB); assay type: cell-based
[25] = test system: mice; experiment: Toxicity to mice in the P388 leukemia protocol; assay type: in vivo, BDF1 mice; details: 75 mg/kg/dose ip, twice daily for five days
Method: 10^6 Leukemia P388 cells were implanted ip to BDF1 mice obtained from Southern Research Institute, Alabama. L(-)-OddC was administered ip twice daily for five days starting one day after tumor cell implantation.

[26] = test system: T-47D; experiment: NCI cancer screening, growth inhibition (SRB); assay type: cell-based
[27] = test system: SP-268; experiment: NCI cancer screening, growth inhibition (SRB); assay type: cell-based; details: 48 h, read-out: Log10 GI50 (converted)
[28] = test system: U251; experiment: NCI cancer screening, growth inhibition (SRB); assay type: cell-based; details: CNS Cancer, 48 hours exposure
[29] = test system: ACHN; experiment: NCI cancer screening, growth inhibition (SRB); assay type: cell-based; details: Renal Cancer, 48 hours exposure
[30] = test system: TK-30; experiment: NCI cancer screening, growth inhibition (SRB); assay type: cell-based
[31] = test system: MDA-MB-435; experiment: NCI cancer screening, growth inhibition (SRB); assay type: cell-based; details: Homo sapiens, MDA-MB-435, 48 h, read-out: Log10 GI50 (converted)
[32] = 25 mg/kg ip, twice a day, days 1 to 5
[33] = read-out: Log10 GI50 (converted)
[34] = Breast Cancer, 48 hours exposure

With `Nc1ccn([C@@H]2CO[C@H](CO)O2)c(=O)n1` [(-)-OddC, (-)-(2S,4S)-1-(2-hydroxymethyl-1,3-dioxolan-4-yl)cytosine] the GI50 ([1]; Homo sapiens, SN12C, read-out: Log10 GI50 (converted)) was 0.537 µM, the “Log10 TGI” value [1] was greater than -4.00 and the “Log10 TGI” value [2] was greater than -4.00. For the same compound, the GI50 ([3]; Homo sapiens, Malme-3M, read-out: Log10 GI50 (converted)) was 30.9 µM, the “Log10 TGI” value [3] was greater than -4.00 and the “Cures/Total (survivors equal or greater than 45 day life span)” value [4, 32] was 1/6. For the same compound, the “ILS (Increased Life Span percent above control)” value [4, 32] was 103%, the “Mean Survival Time” value ([4]; 25 mg/kg ip, twice a day, days 1 to 5 (control 13.3 days)) was 27 days and the “life span increase of the remaining five mice” value ([4]; 25 mg/kg/dose ip, twice daily for five days) was 103%. For the same compound, the long term survivors ([4]; of six mice treated with 25 mg/kg/dose) was “one long term survivor”, the “Log10 TGI” value [5] was greater than -4.00 and the GI50 [6] was greater than 100 µM. The “Log10 TGI” value [7] was greater than -4.00, the GI50 [7, 33] was 4.37 µM and the “Log10 TGI” value [8, 34] was greater than -4.00. The GI50 ([8]; Homo sapiens, Hs-578T, 48 h, read-out: Log10 GI50 (converted)) was greater than 100 µM, the “Log10 TGI” value [9] was greater than -4.00 and the GI50 ([9]; Homo sapiens, MCF7, read-out: Log10 GI50 (converted)) was 1.12 µM. For the same compound, the “sensitivity to (-)-OddC” value [10] was “extreme sensitivity”, the “sensitivity to (-)-OddC” value [11] was “extreme sensitivity” and the “sensitivity to (-)-OddC” value [12] was “exhibited sensitivity”. For the same compound, the “sensitivity to (-)-OddC” value [13] was “extreme sensitivity”, the GI50 [14] was 0.219 µM and the “Log10 TGI” value [15] was -4.39. The GI50 [16] was greater than 100 µM, the “Log10 TGI” value [17] was greater than -4.00 and the GI50 [17, 33] was 0.575 µM. The GI50 ([18]; Homo sapiens, OVCAR-4, 48 h, read-out: Log10 GI50 (converted)) was greater than 100 µM, the “Log10 TGI” value ([18]; Ovarian Cancer, 48 hours exposure) was greater than -4.00 and the “Log10 TGI” value [19] was greater than -4.00. The GI50 ([19]; Homo sapiens, HCT-116, read-out: Log10 GI50 (converted)) was 5.89 µM, the “colon tumor cell growth” value [20] was “retarded” and the GI50 ([21]; Homo sapiens, SK-MEL-28, read-out: Log10 GI50 (converted)) was 49 µM. For the same compound, the “Log10 TGI” value [21] was greater than -4.00, the GI50 ([22]; Homo sapiens, NCI-H460, read-out: Log10 GI50 (converted)) was 47.9 µM and the “Log10 TGI” value [22] was greater than -4.00. The GI50 [23] was 4.47 µM, the “Log10 TGI” value ([24]; Colon Cancer, 48 hours exposure) was greater than -4.00 and the GI50 ([24]; Homo sapiens, HT-29, 48 h, read-out: Log10 GI50 (converted)) was greater than 100 µM. For the same compound, the “toxicity to the mice” value [25] was “toxic to the mice”, the “Log10 TGI” value [26, 34] was greater than -4.00 and the GI50 ([26]; Homo sapiens, T47D, 48 h, read-out: Log10 GI50 (converted)) was greater than 100 µM. For the same compound, the GI50 [27] was 6.61 µM, the “Log10 TGI” value [28] was greater than -4.00 and the GI50 ([28]; Homo sapiens, U-251, read-out: Log10 GI50 (converted)) was 12.3 µM. For the same compound, the GI50 ([29]; Homo sapiens, ACHN, read-out: Log10 GI50 (converted)) was 0.347 µM, the “Log10 TGI” value [29] was greater than -4.00 and the GI50 ([30]; 48 h, read-out: Log10 GI50 (converted)) was greater than 100 µM. For the same compound, the “Log10 TGI” value ([30]; Renal Cancer, 48 hours exposure) was greater than -4.00 and the GI50 [31] was 24 µM.
